Measurements from US10550112B2, “Pyrimidines as EGFR inhibitors and methods of treating disorders” (Dana-Farber Cancer Institute, Inc., priority 2015, dated 2020).

Key:
Format in all cases: cell-based, Murine
[1] = biological target: EGFR wild type Ba/F3 cell line (Homo sapiens, UniProt P00533, cells depend on it, form not given); test: Ba/F3 cell proliferation MTS assay, EGFR wild type; conditions: 72 hours
[2] = biological target: HER2 wild type Ba/F3 cell line (Homo sapiens, UniProt P04626); test: Ba/F3 cell proliferation MTS assay, HER2 wild type; conditions: HER2 wild type Ba/F3 cells, 72 hours
Method: (§1) Murine Ba/F3 cells engineered to express mutant and wild type EGFR or HER2 protein were used to perform single drug screens. Cell viability was assessed after 72 hours of compound exposure using the colorimetric cell proliferation MTS assay kit (Promega).
(§2) The curves were fitted using a non-linear regression model with a sigmoidal dose response.

[3] = biological target: EGFR InsSVD Ba/F3 cell line (Homo sapiens, UniProt P00533, DUP768-770, cells depend on it); test: Ba/F3 cell proliferation MTS assay, EGFR InsSVD; conditions: EGFR InsSVD (D770_N771insSVD) Ba/F3 cells, 72 hours
Method: (§3) Different EGFR exon 20 insertion mutations were introduced via site directed mutagenesis into full length EGFR using the Quick Change Site-Directed Mutagenesis kit (Stratagene; La Jolla, Calif.) according to the manufacturer's instructions. All constructs were confirmed by DNA sequencing. The constructs were shuttled into the retroviral vector JP1540 using the BD Creator™ System (BD Biosciences). […] Stable clones were obtained by selection in puromycin (2 μg/ml) and growth in IL-3 free media.
as §1, §2

[4] = biological target: EGFR InsGY Ba/F3 cell line (Homo sapiens, UniProt P00533, DELINS770-770GY, cells depend on it); test: Ba/F3 cell proliferation MTS assay, EGFR InsGY; conditions: EGFR InsGY (D770delinsGY) Ba/F3 cells, 72 hours
Method: as §3, §1, §2

[5] = biological target: EGFR InsASV Ba/F3 cell line (Homo sapiens, UniProt P00533, DUP767-769, cells depend on it); test: Ba/F3 cell proliferation MTS assay, EGFR InsASV; conditions: EGFR InsASV (V769_D770insASV) Ba/F3 cells, 72 hours
Method: as §3, §1, §2

[6] = biological target: HER2 InsYVMA Ba/F3 cell line (Homo sapiens, UniProt P04626, DUP772-775, cells depend on it); test: Ba/F3 cell proliferation MTS assay, HER2 InsYVMA; conditions: 72 hours;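 note: murine Ba/F3 cells engineered to carry mutant HER2, viability read colorimetrically by MTS after 72 h of exposure, EC50 from sigmoidal non-linear regression of dose response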
Method: as §1, §2

EGFR InsGY Ba/F3 cell line, sequence (P00533 with tags, fused parts or gaps DELINS770-770GY): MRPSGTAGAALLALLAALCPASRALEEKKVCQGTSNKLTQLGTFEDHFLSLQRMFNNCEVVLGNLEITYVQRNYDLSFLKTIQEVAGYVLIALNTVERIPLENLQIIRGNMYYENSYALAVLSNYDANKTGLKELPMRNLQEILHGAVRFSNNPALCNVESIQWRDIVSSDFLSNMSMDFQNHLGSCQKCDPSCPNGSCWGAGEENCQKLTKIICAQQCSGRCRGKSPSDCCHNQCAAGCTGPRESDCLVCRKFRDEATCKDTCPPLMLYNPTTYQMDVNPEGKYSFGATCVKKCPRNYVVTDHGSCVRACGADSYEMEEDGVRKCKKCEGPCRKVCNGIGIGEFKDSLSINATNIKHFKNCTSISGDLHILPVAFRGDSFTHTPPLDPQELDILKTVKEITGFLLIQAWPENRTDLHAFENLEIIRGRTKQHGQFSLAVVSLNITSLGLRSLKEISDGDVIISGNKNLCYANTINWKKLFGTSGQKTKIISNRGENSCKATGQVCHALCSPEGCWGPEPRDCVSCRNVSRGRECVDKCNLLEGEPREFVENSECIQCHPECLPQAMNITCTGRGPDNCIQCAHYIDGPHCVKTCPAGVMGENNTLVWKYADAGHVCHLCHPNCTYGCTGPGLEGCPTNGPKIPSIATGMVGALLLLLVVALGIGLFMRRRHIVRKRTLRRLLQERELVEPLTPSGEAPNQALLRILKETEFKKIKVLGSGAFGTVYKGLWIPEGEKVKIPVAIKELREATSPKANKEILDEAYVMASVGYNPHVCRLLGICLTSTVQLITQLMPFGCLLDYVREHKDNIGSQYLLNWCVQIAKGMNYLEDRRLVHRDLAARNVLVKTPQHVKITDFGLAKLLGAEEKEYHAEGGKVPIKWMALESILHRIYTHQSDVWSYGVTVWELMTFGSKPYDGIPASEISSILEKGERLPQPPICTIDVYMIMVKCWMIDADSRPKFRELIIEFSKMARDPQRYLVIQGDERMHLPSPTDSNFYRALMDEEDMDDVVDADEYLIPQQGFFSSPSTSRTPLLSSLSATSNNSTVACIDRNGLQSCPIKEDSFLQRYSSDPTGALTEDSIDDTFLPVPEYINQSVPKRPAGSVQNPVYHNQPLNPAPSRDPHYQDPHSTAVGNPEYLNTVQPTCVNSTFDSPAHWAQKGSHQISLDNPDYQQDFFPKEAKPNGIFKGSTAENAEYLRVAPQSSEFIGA
EGFR InsASV Ba/F3 cell line, sequence (P00533 with tags, fused parts or gaps DUP767-769): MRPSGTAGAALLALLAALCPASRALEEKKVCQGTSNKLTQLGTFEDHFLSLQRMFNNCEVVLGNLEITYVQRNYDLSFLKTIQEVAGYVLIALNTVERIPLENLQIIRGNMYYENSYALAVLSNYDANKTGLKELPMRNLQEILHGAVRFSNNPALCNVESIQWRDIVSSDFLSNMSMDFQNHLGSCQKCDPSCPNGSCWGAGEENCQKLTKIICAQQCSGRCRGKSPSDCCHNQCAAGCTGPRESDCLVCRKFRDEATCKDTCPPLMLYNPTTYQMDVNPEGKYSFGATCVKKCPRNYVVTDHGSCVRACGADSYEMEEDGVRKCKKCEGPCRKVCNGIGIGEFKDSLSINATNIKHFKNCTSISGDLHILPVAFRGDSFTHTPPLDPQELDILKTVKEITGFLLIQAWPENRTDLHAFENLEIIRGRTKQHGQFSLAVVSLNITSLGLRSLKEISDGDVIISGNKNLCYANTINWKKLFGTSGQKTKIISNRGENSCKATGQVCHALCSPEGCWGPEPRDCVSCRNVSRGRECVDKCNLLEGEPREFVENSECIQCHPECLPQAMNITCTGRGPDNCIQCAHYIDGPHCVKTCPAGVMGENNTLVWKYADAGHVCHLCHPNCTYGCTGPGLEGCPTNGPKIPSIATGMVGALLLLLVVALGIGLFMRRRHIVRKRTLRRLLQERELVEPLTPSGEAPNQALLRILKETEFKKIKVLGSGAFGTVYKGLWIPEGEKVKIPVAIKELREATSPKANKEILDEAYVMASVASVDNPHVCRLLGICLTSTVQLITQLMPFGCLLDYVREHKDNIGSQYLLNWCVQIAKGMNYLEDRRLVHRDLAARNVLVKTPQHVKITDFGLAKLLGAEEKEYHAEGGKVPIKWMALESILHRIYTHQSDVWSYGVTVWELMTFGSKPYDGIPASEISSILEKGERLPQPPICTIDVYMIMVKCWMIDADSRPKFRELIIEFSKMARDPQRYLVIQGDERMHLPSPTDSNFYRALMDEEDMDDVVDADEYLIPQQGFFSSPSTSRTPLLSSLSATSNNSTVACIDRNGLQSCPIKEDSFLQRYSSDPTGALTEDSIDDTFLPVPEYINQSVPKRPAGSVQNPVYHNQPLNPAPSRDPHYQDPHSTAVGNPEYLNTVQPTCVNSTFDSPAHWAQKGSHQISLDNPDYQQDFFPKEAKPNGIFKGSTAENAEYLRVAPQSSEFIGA
EGFR wild type Ba/F3 cell line, sequence (P00533 whole entry, change not shown): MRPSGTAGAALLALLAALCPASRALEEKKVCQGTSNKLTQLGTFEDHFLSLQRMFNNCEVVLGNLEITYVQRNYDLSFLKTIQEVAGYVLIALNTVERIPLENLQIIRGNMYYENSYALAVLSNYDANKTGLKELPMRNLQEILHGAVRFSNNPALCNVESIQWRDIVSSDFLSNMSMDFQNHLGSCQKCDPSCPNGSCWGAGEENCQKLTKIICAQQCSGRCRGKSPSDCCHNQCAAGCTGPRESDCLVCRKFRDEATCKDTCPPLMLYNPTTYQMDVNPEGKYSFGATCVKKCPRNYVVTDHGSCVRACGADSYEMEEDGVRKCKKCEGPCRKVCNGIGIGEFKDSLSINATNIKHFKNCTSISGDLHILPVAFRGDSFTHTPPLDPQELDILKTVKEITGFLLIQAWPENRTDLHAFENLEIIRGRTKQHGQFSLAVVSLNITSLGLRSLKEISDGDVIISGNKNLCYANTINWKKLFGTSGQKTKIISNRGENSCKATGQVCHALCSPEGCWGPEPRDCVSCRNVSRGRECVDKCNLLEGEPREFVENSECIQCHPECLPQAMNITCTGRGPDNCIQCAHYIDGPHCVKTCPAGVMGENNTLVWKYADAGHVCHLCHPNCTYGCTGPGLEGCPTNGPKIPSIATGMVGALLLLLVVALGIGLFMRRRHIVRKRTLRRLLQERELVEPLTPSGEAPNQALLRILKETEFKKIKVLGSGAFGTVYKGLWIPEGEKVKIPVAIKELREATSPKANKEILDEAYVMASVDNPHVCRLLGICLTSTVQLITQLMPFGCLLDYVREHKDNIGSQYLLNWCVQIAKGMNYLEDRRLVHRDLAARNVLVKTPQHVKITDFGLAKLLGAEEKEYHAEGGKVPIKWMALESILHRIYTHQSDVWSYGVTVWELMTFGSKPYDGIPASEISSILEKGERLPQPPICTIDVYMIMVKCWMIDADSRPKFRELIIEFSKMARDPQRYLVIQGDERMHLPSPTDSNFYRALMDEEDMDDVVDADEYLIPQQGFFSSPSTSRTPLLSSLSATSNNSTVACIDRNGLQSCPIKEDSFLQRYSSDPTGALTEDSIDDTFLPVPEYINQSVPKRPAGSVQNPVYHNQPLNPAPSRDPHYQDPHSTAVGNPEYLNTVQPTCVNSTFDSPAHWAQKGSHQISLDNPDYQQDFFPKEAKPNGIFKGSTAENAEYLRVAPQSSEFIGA
HER2 wild type Ba/F3 cell line, sequence (P04626 whole entry, stated change not applied): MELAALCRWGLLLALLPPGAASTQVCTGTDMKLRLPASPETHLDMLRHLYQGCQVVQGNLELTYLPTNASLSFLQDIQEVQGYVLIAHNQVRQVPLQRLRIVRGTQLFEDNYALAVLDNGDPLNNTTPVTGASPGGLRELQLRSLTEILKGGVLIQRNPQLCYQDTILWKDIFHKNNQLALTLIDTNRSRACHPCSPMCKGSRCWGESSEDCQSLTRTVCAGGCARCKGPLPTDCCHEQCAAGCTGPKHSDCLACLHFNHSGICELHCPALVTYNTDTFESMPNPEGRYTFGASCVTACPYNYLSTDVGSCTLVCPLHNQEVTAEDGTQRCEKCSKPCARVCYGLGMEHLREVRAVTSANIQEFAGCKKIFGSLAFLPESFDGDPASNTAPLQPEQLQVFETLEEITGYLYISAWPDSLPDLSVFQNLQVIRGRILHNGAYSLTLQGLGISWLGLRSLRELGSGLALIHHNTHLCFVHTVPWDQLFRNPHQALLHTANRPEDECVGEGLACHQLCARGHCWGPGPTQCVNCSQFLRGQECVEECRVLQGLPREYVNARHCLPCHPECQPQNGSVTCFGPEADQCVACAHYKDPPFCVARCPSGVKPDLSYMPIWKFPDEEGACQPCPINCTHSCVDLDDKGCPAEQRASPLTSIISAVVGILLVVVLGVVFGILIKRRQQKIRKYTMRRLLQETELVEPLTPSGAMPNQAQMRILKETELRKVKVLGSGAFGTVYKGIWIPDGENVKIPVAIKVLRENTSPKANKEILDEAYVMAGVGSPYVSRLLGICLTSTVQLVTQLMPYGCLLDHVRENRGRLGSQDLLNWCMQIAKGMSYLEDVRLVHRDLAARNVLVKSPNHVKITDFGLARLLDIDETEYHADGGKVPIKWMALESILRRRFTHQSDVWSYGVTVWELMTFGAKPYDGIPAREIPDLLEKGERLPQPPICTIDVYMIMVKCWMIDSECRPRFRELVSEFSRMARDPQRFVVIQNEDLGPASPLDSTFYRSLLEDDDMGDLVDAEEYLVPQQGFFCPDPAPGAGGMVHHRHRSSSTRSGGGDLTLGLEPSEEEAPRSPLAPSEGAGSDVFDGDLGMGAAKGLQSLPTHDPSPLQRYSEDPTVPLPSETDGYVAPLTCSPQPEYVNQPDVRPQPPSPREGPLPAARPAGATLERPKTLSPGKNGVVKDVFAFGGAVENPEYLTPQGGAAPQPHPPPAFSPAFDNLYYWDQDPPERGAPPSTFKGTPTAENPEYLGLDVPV

## C=CC(=O)Nc1cccc(N(C(=O)OCc2ccc(Cl)cc2)c2ccnc(Nc3cnn(C)c3)n2)c1 [Compound I-9, 4-chlorobenzyl (3-acrylamidophenyl)(2-((1-methyl-1H-pyrazol-4-yl)amino)pyrimidin-4-yl)carbamate]
[1]
  EC50: < 100 nM
[2]
  EC50: < 100 nM
[3]
  EC50: 100 to 500 nM
[4]
  EC50: 100 to 500 nM
[5]
  EC50: 500 to 1000 nM
[6]
  EC50: 100 to 500 nM

## C=CC(=O)Nc1cccc(N(C(=O)OCc2ccc(F)cn2)c2ccnc(Nc3ccn(C)n3)n2)c1 [Compound I-10, (5-fluoropyridin-2-yl)methyl (3-acrylamidophenyl)(2-((1-methyl-1H-pyrazol-3-yl)amino)pyrimidin-4-yl)carbamate]
[1]
  EC50: < 100 nM
[2]
  EC50: 100 to 500 nM
[3]
  EC50: 100 to 500 nM
[4]
  EC50: 500 to 1000 nM
[5]
  EC50: 500 to 1000 nM
[6]
  EC50: 500 to 1000 nM

## C=CC(=O)Nc1cccc(N(C(=O)OCc2ccc(F)cn2)c2ccnc(Nc3cnn(C)c3)n2)c1 [Compound I-11, (5-fluoropyridin-2-yl)methyl (3-acrylamidophenyl)(2-((1-methyl-1H-pyrazol-4-yl)amino)pyrimidin-4-yl)carbamate]
[1]
  EC50: < 100 nM
[2]
  EC50: 100 to 500 nM
[3]
  EC50: 500 to 1000 nM
[4]
  EC50: 500 to 1000 nM
[5]
  EC50: > 1000 nM
[6]
  EC50: 500 to 1000 nM

## C=CC(=O)Nc1cccc(N(C(=O)OCc2ccc(F)nc2)c2ccnc(Nc3ccn(C)n3)n2)c1 [Compound I-12, (6-fluoropyridin-3-yl)methyl (3-acrylamidophenyl)(2-((1-methyl-1H-pyrazol-3-yl)amino)pyrimidin-4-yl)carbamate]
[1]
  EC50: 100 to 500 nM
[2]
  EC50: 100 to 500 nM
[3]
  EC50: 500 to 1000 nM
[4]
  EC50: 500 to 1000 nM
[5]
  EC50: > 1000 nM
[6]
  EC50: > 1000 nM

## C=CC(=O)Nc1cccc(N(C(=O)OCc2ccc(F)nc2)c2ccnc(Nc3cnn(C)c3)n2)c1 [Compound I-13, (6-fluoropyridin-3-yl)methyl (3-acrylamidophenyl)(2-((1-methyl-1H-pyrazol-4-yl)amino)pyrimidin-4-yl)carbamate]
[1]
  EC50: 100 to 500 nM
[2]
  EC50: 100 to 500 nM
[3]
  EC50: > 1000 nM
[4]
  EC50: > 1000 nM
[5]
  EC50: > 1000 nM
[6]
  EC50: > 1000 nM

## C=CC(=O)Nc1cccc(N(C(=O)O[C@H](C)c2ccc(F)cc2)c2ccnc(Nc3cnn(C)c3)n2)c1 [Compound I-15, (R)-1-(4-fluorophenyl)ethyl (3-acrylamidophenyl)(2-((1-methyl-1H-pyrazol-4-yl)amino)pyrimidin-4-yl)carbamate]
[1]
  EC50: < 100 nM
[2]
  EC50: < 100 nM
[3]
  EC50: < 100 nM
[4]
  EC50: < 100 nM
[5]
  EC50: 100 to 500 nM
[6]
  EC50: 100 to 500 nM

## C=CC(=O)Nc1cccc(N(C(=O)O[C@@H](C)c2ccc(F)cc2)c2ccnc(Nc3ccn(C)n3)n2)c1 [Compound I-16, (S)-1-(4-fluorophenyl)ethyl (3-acrylamidophenyl)(2-((1-methyl-1H-pyrazol-3-yl)amino)pyrimidin-4-yl)carbamate]
[1]
  EC50: < 100 nM
[2]
  EC50: < 100 nM
[3]
  EC50: 100 to 500 nM
[4]
  EC50: 100 to 500 nM
[5]
  EC50: 500 to 1000 nM
[6]
  EC50: 500 to 1000 nM

## C=CC(=O)Nc1cccc(N(C(=O)O[C@@H](C)c2ccc(F)cc2)c2ccnc(Nc3cnn(C)c3)n2)c1 [Compound I-17, (S)-1-(4-fluorophenyl)ethyl (3-acrylamidophenyl)(2-((1-methyl-1H-pyrazol-4-yl)amino)pyrimidin-4-yl)carbamate]
[1]
  EC50: < 100 nM
[2]
  EC50: < 100 nM
[3]
  EC50: < 100 nM
[4]
  EC50: < 100 nM
[5]
  EC50: 100 to 500 nM
[6]
  EC50: < 100 nM

## C=CC(=O)Nc1cccc(N(C(=O)OCc2csc3ccccc23)c2ccnc(Nc3cnn(C)c3)n2)c1 [Compound I-19, benzo[b]thiophen-3-ylmethyl (3-acrylamidophenyl)(2-((1-methyl-1H-pyrazol-4-yl)amino)pyrimidin-4-yl)carbamate]
[1]
  EC50: 100 to 500 nM
[2]
  EC50: 100 to 500 nM
[3]
  EC50: > 1000 nM
[4]
  EC50: > 1000 nM
[5]
  EC50: > 1000 nM
[6]
  EC50: > 1000 nM
